# Patent publication US5405849A, “Angiotensin II receptor blocking 2,3,6 substituted quinazolinones” (American Cyanamid Company, priority 1993, dated 1995)
# System: angiotensin II (AII) vasopressor response
# Assay: AII challenge: antagonism of the vasopressor response of angiotensin II in conscious Okamoto-Aoki SHR
# Type: in vivo, rat (Okamoto-Aoki SHR)
# Settings: for inhibition in vivo at 1 mg/kg / inhibition in vivo at 2 mg/kg / inhibition in vivo at 3 mg/kg / inhibition in vivo at 5 mg/kg / inhibition in vivo at 30 mg/kg: Rattus norvegicus; for inhibition in vivo at 1 mg/kg / inhibition in vivo at 2 mg/kg / inhibition in vivo at 3 mg/kg / inhibition in vivo at 30 mg/kg: iv; for inhibition in vivo at 5 mg/kg: po; for inhibition in vivo at 30 mg/kg: 30 mg/kg iv
# Text: Conscious Male Okamoto-Aoki SHR, 16-20 weeks old, weighing approximately 330 g are purchased from Charles River Labs (Wilmington, Mass.). Conscious rats are restrained in a supine position with elastic tape. The area at the base of the tail is locally anesthetized by subcutaneous infiltration with 2% procaine. The ventral caudal artery and vein are isolated, and a cannula made of polyethylene (PE) 10-20 tubing (fused together by heat) is passed into the lower abdominal aorta and vena cava, respectively. The cannula is secured, heparinized (1,000 I.U./ml), sealed and the wound is closed. The animals are placed in plastic restraining cages in an upright position. The cannula is attached to a Statham P23Db pressure transducer, and pulsatile blood pressure is recorded to 10-15 minutes with a Gould Brush recorder.
# Angiotensin II (human sequence, Sigma Chem. Co., St. Louis, Mo.) of 0.05 and 0.1 ug/kg i.v. is injected into all rats (predosing response). Then a test compound, vehicle or a known angiotensin II antagonist is administered i.v., i.p. or orally to each set of rats. […] The vasopressor response of angiotensin II is measured for the increase in systolic blood pressure in mmHg. The percentage of antagonism or blockade of the vasopressor response of angiotensin II by a compound is calculated using the vasopressor response (increase in systolic blood pressure) of angiotensin II of each rat predosing the compound as 100%.
smiles,measurement,setting,value
"CCCCc1nc2ccc(C(C)(C)OC)cc2c(=O)n1Cc1ccc(-c2ccccc2-c2nnn[nH]2)cc1 [Example 57, 2-Butyl-6-(1-methoxy-1-methylethyl)-3-[[2'-(1H-tetrazol-5-yl)[1,1'-biphenyl]-4-yl]methyl]-4(3H)-quinazolinone]",Response change (systolic BP increase to AII),"1 mg/kg iv, AII .025 ug/kg, 15 min",15 mmHg
same,Response change (systolic BP increase to AII),"1 mg/kg iv, AII .025 ug/kg, 30 min",15 mmHg
same,Response change (systolic BP increase to AII),"1 mg/kg iv, AII .025 ug/kg, 60 min",5 mmHg
same,Response change (systolic BP increase to AII),"1 mg/kg iv, AII .05 ug/kg, 15 min",5 mmHg
same,Response change (systolic BP increase to AII),"1 mg/kg iv, AII .05 ug/kg, 30 min",10 mmHg
same,Response change (systolic BP increase to AII),"1 mg/kg iv, AII .05 ug/kg, 60 min",15 mmHg
same,Response change (systolic BP increase to AII),"1 mg/kg iv, AII .1 ug/kg, 15 min",25 mmHg
same,Response change (systolic BP increase to AII),"1 mg/kg iv, AII .1 ug/kg, 30 min",35 mmHg
same,Response change (systolic BP increase to AII),"1 mg/kg iv, AII .1 ug/kg, 60 min",35 mmHg
same,Response change (systolic BP increase to AII),"2 mg/kg iv, AII .025 ug/kg, 30 min",0 mmHg
same,Response change (systolic BP increase to AII),"2 mg/kg iv, AII .025 ug/kg, 120 min",60 mmHg
same,Response change (systolic BP increase to AII),"2 mg/kg iv, AII .025 ug/kg, 150 min",0 mmHg
same,Response change (systolic BP increase to AII),"2 mg/kg iv, AII .05 ug/kg, 30 min",0 mmHg
same,Response change (systolic BP increase to AII),"2 mg/kg iv, AII .05 ug/kg, 120 min",30 mmHg
same,Response change (systolic BP increase to AII),"2 mg/kg iv, AII .05 ug/kg, 150 min",0 mmHg
same,Response change (systolic BP increase to AII),"2 mg/kg iv, AII .1 ug/kg, 30 min",0 mmHg
same,Response change (systolic BP increase to AII),"2 mg/kg iv, AII .1 ug/kg, 120 min",20 mmHg
same,Response change (systolic BP increase to AII),"3 mg/kg iv, AII .025 ug/kg, 150 min",15 mmHg
same,Response change (systolic BP increase to AII),"3 mg/kg iv, AII .05 ug/kg, 150 min",15 mmHg
same,Response change (systolic BP increase to AII),"3 mg/kg iv, AII .1 ug/kg, 150 min",25 mmHg
same,Response change (systolic BP increase to AII),"5 mg/kg oral, AII .025 ug/kg, 240 min",0 mmHg
same,inhibition in vivo at 1 mg/kg,"0.25 h, 1 mg/kg iv, AII .025 ug/kg, 15 min",50%
same,inhibition in vivo at 1 mg/kg,"0.25 h, 1 mg/kg iv, AII .05 ug/kg, 15 min",89%
same,inhibition in vivo at 1 mg/kg,"0.25 h, 1 mg/kg iv, AII .1 ug/kg, 15 min",48%
same,inhibition in vivo at 1 mg/kg,"0.5 h, 1 mg/kg iv, AII .025 ug/kg, 30 min",50%
same,inhibition in vivo at 1 mg/kg,"0.5 h, 1 mg/kg iv, AII .05 ug/kg, 30 min",78%
same,inhibition in vivo at 1 mg/kg,"0.5 h, 1 mg/kg iv, AII .1 ug/kg, 30 min",27%
same,inhibition in vivo at 2 mg/kg,"0.5 h, 2 mg/kg iv, AII .025 ug/kg, 30 min",100%
same,inhibition in vivo at 2 mg/kg,"0.5 h, 2 mg/kg iv, AII .05 ug/kg, 30 min",100%
same,inhibition in vivo at 2 mg/kg,"0.5 h, 2 mg/kg iv, AII .1 ug/kg, 30 min",100%
same,inhibition in vivo at 1 mg/kg,"1 h, 1 mg/kg iv, AII .025 ug/kg, 60 min",83%
same,inhibition in vivo at 1 mg/kg,"1 h, 1 mg/kg iv, AII .05 ug/kg, 60 min",67%
same,inhibition in vivo at 1 mg/kg,"1 h, 1 mg/kg iv, AII .1 ug/kg, 60 min",27%
same,inhibition in vivo at 2 mg/kg,"2 h, 2 mg/kg iv, AII .025 ug/kg, 120 min",100%
same,inhibition in vivo at 2 mg/kg,"2 h, 2 mg/kg iv, AII .05 ug/kg, 120 min",33%
same,inhibition in vivo at 2 mg/kg,"2 h, 2 mg/kg iv, AII .1 ug/kg, 120 min",58%
same,inhibition in vivo at 2 mg/kg,"2.5 h, 2 mg/kg iv, AII .025 ug/kg, 150 min",100%
same,inhibition in vivo at 2 mg/kg,"2.5 h, 2 mg/kg iv, AII .05 ug/kg, 150 min",100%
same,inhibition in vivo at 2 mg/kg,"2.5 h, 2 mg/kg iv, AII .1 ug/kg, 150 min",82%
same,inhibition in vivo at 3 mg/kg,"2.5 h, 3 mg/kg iv, AII .025 ug/kg, 150 min",50%
same,inhibition in vivo at 3 mg/kg,"2.5 h, 3 mg/kg iv, AII .05 ug/kg, 150 min",67%
same,inhibition in vivo at 3 mg/kg,"2.5 h, 3 mg/kg iv, AII .1 ug/kg, 150 min",48%
same,inhibition in vivo at 5 mg/kg,"0.5 h, 5 mg/kg oral, AII .025 ug/kg, 30 min",94%
same,inhibition in vivo at 5 mg/kg,"1 h, 5 mg/kg oral, AII .025 ug/kg, 60 min",89%
same,inhibition in vivo at 5 mg/kg,"1.5 h, 5 mg/kg oral, AII .05 ug/kg, 90 min",61%
same,inhibition in vivo at 5 mg/kg,"1.5 h, 5 mg/kg oral, AII .1 ug/kg, 90 min",36%
same,inhibition in vivo at 5 mg/kg,"2 h, 5 mg/kg oral, AII .025 ug/kg, 120 min",94%
same,inhibition in vivo at 5 mg/kg,"2 h, 5 mg/kg oral, AII .1 ug/kg, 120 min",40%
same,inhibition in vivo at 5 mg/kg,"3 h, 5 mg/kg oral, AII .025 ug/kg, 180 min",72%
same,inhibition in vivo at 5 mg/kg,"3 h, 5 mg/kg oral, AII .05 ug/kg, 180 min",68%
same,inhibition in vivo at 5 mg/kg,"3 h, 5 mg/kg oral, AII .1 ug/kg, 180 min",56%
same,inhibition in vivo at 5 mg/kg,"4 h, 5 mg/kg oral, AII .025 ug/kg, 240 min",100%
same,inhibition in vivo at 5 mg/kg,"4 h, 5 mg/kg oral, AII .05 ug/kg, 240 min",49%
same,inhibition in vivo at 5 mg/kg,"4 h, 5 mg/kg oral, AII .1 ug/kg, 240 min",48%
"CCCCc1nc2ccc(C(C)OC(C)=O)cc2c(=O)n1Cc1ccc(-c2ccccc2-c2nnn[nH]2)cc1 (stereo not drawn) [Example 58, 6-[1-(Acetyloxy)ethyl]-2-butyl-3-[[2'-(1H-tetrazol-5-yl)[1,1'-biphenyl]-4-yl]methyl]-4(3H) -quinazolinone]",inhibition in vivo at 30 mg/kg,"0.5 h, AII .05 ug/kg, 30 min",87%
same,inhibition in vivo at 30 mg/kg,"0.5 h, AII .1 ug/kg, 30 min",98%
same,inhibition in vivo at 30 mg/kg,"1.5 h, AII .05 ug/kg, 90 min",85%
same,inhibition in vivo at 30 mg/kg,"1.5 h, AII .1 ug/kg, 90 min",95%
same,inhibition in vivo at 30 mg/kg,"2.5 h, AII .05 ug/kg, 150 min",85%
same,inhibition in vivo at 30 mg/kg,"2.5 h, AII .1 ug/kg, 150 min",81%
